Earlier results on seven molecules are cited in patent publication US20060127486A1, “Ceramic structures for prevention of drug diversion” (priority 2004, published 2006).

Read-outs that look alike come from different tables or passages of the source.

Details of this data set: reference not given here.
[1] abbreviates: equianalgesic doses of various opioids, given as an aid to exact dose determination.

`COc1ccc2c3c1O[C@H]1C(=O)CC[C@H]4[C@@H](C2)N(C)CC[C@]314` [hydrocodone]: the equianalgesic dose under setting [1] is listed as 15.0 mg.
Regarding `CCC(=O)C(CC(C)N(C)C)(c1ccccc1)c1ccccc1` (stereo not shown) [methadone], the equianalgesic dose under setting [1] is 9.0 mg.
Turning to `CN1CC[C@]23c4c5ccc(O)c4O[C@H]2[C@@H](O)C=C[C@H]3[C@H]1C5` [morphine], where the note is “in vivo”, the equianalgesic dose is 27.0 mg.
On to `CN1CC[C@]23CCCC[C@H]2[C@H]1Cc1ccc(O)cc13` [levorphanol], for which the equianalgesic dose under setting [1] is reported as 1.8 mg.
On to `CCOC(=O)C1(c2ccccc2)CCN(C)CC1` [meperidine], for which, where the note is “in vivo”, the equianalgesic dose is 135.0 mg.
Turning to `COc1ccc2c3c1O[C@H]1C(=O)CC[C@@]4(O)[C@@H](C2)N(C)CC[C@]314` [oxycodone], the equianalgesic dose under setting [1] is 13.5 mg.
Regarding `COc1ccc2c3c1O[C@H]1[C@@H](O)C=C[C@H]4[C@@H](C2)N(C)CC[C@@]341` [codeine], under setting [1], the equianalgesic dose was 90.0 mg.
